*1 amine or outer side, *2 acyl side, *3 side chain or, on linkers, in order; H or OH if unused. Where a SMILES comes first, the peptide text is derived from it. Bridges are numbered along the chain shown (N, C = ends). [ ]: non-standard residue; d: D form. The star is where a group is joined. ξ: configuration not given here. NMeAla(4-thiazolyl) = CN[C@@H](Cc1cscn1)C(=O)O; NMeF = CN[C@@H](Cc1ccccc1)C(=O)O; NMeGABA = CN(CCCC(=O)[*:2])[*:1]; NMeβAla = CN(CCC(=O)[*:2])[*:1]; NMeD = CN[C@@H](CC(=O)O)C(=O)O; NMeL = CN[C@@H](CC(C)C)C(=O)O; NMeV = CN[C@H](C(=O)O)C(C)C; NMeA = CN[C@@H](C)C(=O)O; Piperidide = C1CCN(*)CC1; dNMeA = CN[C@H](C)C(=O)O; ξV = CC(C)C(N)C(=O)O; Sar = CNCC(=O)O; tBu = CC(C)(C)*

The first series is described as follows: in vitro. As to conditions: human, Caco-2, Caco-2 (cm/sec).
One may read the Papp as a coefficient for how fast a substance crosses the barrier. `CC(C)C[C@@H]1NC(=O)[C@H](Cc2ccccc2)N(C)C(=O)[C@H](CC(C)C)N(C)C(=O)CCN(C)C(=O)C[C@@H](C(=O)N2CCCCC2)NC(=O)[C@H](CC(C)C)N(C)C(=O)[C@H](Cc2ccccc2)N(C)C(=O)[C@H]([C@@H](C)O)NC(=O)[C@H](Cc2ccccc2)N(C)C1=O` [pd207] ([NMeβAla][NMeL][NMeF]L[NMeF]T[NMeF][NMeL]D-Piperidide; lactam N-9) displayed a Papp of 1.7 ×10⁻⁶ cm/s.
`CC(C)C[C@@H]1NC(=O)[C@H](Cc2ccccc2)N(C)C(=O)[C@H](COC(C)(C)C)NC(=O)[C@H](Cc2ccccc2)N(C)C(=O)[C@H](C)N(C)C(=O)[C@H](CC(C)C)N(C)C(=O)[C@@H](C)NC(=O)C[C@@H](C(=O)N2CCCCC2)N(C)C(=O)[C@H](Cc2ccccc2)N(C)C(=O)[C@H]([C@@H](C)O)NC(=O)[C@H](C(C)C)N(C)C1=O` [pd208] ([dA][NMeL][NMeA][NMeF]S(tBu)[NMeF]L[NMeV]T[NMeF][NMeD]-Piperidide; lactam N-11) displayed an apparent permeability coefficient (Papp) of 1.7 ×10⁻⁶ cm/s.
With `CC(C)C[C@@H]1NC(=O)[C@H](Cc2ccccc2)N(C)C(=O)[C@H](C)NC(=O)C[C@@H](C(=O)N2CCCCC2)N(C)C(=O)[C@H](Cc2ccccc2)N(C)C(=O)[C@H](Cc2ccccc2)N(C)C(=O)[C@H](COC(C)(C)C)NC(=O)[C@H](CC(C)C)N(C)C(=O)CN(C)C(=O)[C@H]([C@@H](C)O)NC(=O)[C@H](CC(C)C)N(C)C1=O` [pd209] (A[NMeF]L[NMeL]T[Sar][NMeL]S(tBu)[NMeF][NMeF][NMeD]-Piperidide; lactam N-11), the Papp was determined as 1.7 ×10⁻⁶ cm/s.
As for `CC(C)C[C@H]1C(=O)N[C@@H](COC(C)(C)C)C(=O)N(C)[C@@H](Cc2ccccc2)C(=O)N(C)[C@@H](CC(C)C)C(=O)N[C@H](C(=O)N2CCCCC2)CC(=O)N[C@H](C(C)C)C(=O)N(C)[C@@H](Cc2ccccc2)C(=O)N[C@@H](C(C)C)C(=O)N(C)[C@@H](Cc2ccccc2)C(=O)N[C@@H]([C@@H](C)O)C(=O)N(C)CC(=O)N1C` [pd210] ([dV][NMeF]V[NMeF]T[Sar][NMeL]S(tBu)[NMeF][NMeL]D-Piperidide; lactam N-11), the Papp turned out to be 1.6 ×10⁻⁶ cm/s.
The same measure, in the same setting: as for `CC(C)C[C@H]1C(=O)N[C@H](C(=O)N(C)[C@@H](Cc2ccccc2)C(=O)N[C@@H](C)C(=O)N2CCCCC2)CC(=O)N(C)[C@@H](C)C(=O)N[C@@H]([C@@H](C)O)C(=O)N(C)[C@@H](C)C(=O)N(C)[C@@H](CC(C)C)C(=O)N[C@@H](C(C)C)C(=O)N(C)[C@@H](Cc2ccccc2)C(=O)N[C@@H](Cc2ccccc2)C(=O)N1C` [pd212] ([NMeA]T[NMeA][NMeL]V[NMeF]F[NMeL]D[NMeF]A-Piperidide; lactam N-9), the figure is 1.4 ×10⁻⁶ cm/s.
`CC(C)C[C@@H]1NC(=O)[C@H](Cc2ccccc2)N(C)C(=O)[C@H](COC(C)(C)C)NC(=O)[C@H](Cc2ccccc2)N(C)C(=O)[C@H](C)N(C)C(=O)[C@H](CC(C)C)N(C)C(=O)[C@H](C)N(C)C(=O)C[C@@H](C(=O)N2CCCCC2)N(C)C(=O)[C@H](Cc2ccccc2)N(C)C(=O)[C@H]([C@@H](C)O)NC(=O)[C@H](C(C)C)N(C)C1=O` [pd213] ([NMeA][NMeL][NMeA][NMeF]S(tBu)[NMeF]L[NMeV]T[NMeF][NMeD]-Piperidide; lactam N-11) gave a Papp of 1.3 ×10⁻⁶ cm/s.
On the same count and under the same terms, as for `CC(C)C[C@@H]1NC(=O)[C@H](Cc2ccccc2)N(C)C(=O)[C@H](COC(C)(C)C)NC(=O)[C@H](Cc2ccccc2)N(C)C(=O)[C@H](C)N(C)C(=O)[C@H](CC(C)C)N(C)C(=O)[C@@H]2CCCN2C(=O)C[C@@H](C(=O)N2CCCCC2)NC(=O)[C@H](Cc2ccccc2)N(C)C(=O)[C@H]([C@@H](C)O)NC(=O)[C@H](CC(C)C)N(C)C1=O` [pd214] (P[NMeL][NMeA][NMeF]S(tBu)[NMeF]L[NMeL]T[NMeF]D-Piperidide; lactam N-11), the figure is 1.2 ×10⁻⁶ cm/s; as for `CC(C)C[C@@H]1NC(=O)[C@H](Cc2ccccc2)N(C)C(=O)C(C(C)C)NC(=O)C[C@@H](C(=O)N2CCCCC2)NC(=O)[C@H](Cc2ccccc2)N(C)C(=O)[C@H](Cc2ccccc2)N(C)C(=O)[C@H](COC(C)(C)C)NC(=O)[C@H](CC(C)C)N(C)C(=O)CN(C)C(=O)[C@H]([C@@H](C)O)NC(=O)[C@H](CC(C)C)N(C)C1=O` (stereo partly drawn) [pd215] ([ξV][NMeF]L[NMeL]T[Sar][NMeL]S(tBu)[NMeF][NMeF]D-Piperidide; lactam N-11), 1.2 ×10⁻⁶ cm/s; as for `CC(C)C[C@H]1C(=O)N[C@@H](C(C)C)C(=O)N(C)[C@@H](Cc2ccccc2)C(=O)N(C)[C@@H](Cc2ccccc2)C(=O)N[C@@H](COC(C)(C)C)C(=O)N(C)[C@@H](CC(C)C)C(=O)N[C@@H]([C@@H](C)O)C(=O)N(C)[C@@H](Cc2ccccc2)C(=O)N(C)[C@@H](CC(C)C)C(=O)N[C@H](C(=O)N2CCCCC2)CC(=O)N(C)CCCC(=O)N1C` [pd216] ([NMeGABA][NMeL]V[NMeF][NMeF]S(tBu)[NMeL]T[NMeF][NMeL]D-Piperidide; lactam N-11), 1.2 ×10⁻⁶ cm/s.
`CC(C)C[C@@H]1NC(=O)[C@H](Cc2ccccc2)N(C)C(=O)[C@H](C)NC(=O)C[C@@H](C(=O)N2CCCCC2)NC(=O)[C@H](Cc2ccccc2)N(C)C(=O)[C@H](Cc2ccccc2)N(C)C(=O)[C@H](COC(C)(C)C)NC(=O)[C@H](CC(C)C)N(C)C(=O)CN(C)C(=O)[C@H]([C@@H](C)O)NC(=O)[C@H](CC(C)C)N(C)C1=O` [pd217] (A[NMeF]L[NMeL]T[Sar][NMeL]S(tBu)[NMeF][NMeF]D-Piperidide; lactam N-11) came in with a Papp of 1.1 ×10⁻⁶ cm/s.
Consider `CC(C)C[C@@H]1NC(=O)[C@H](CC(C)C)N(C)C(=O)[C@H](C)N(C)C(=O)C[C@@H](C(=O)N(C)[C@@H](Cc2ccccc2)C(=O)N[C@@H](C)C(=O)N2CCCCC2)NC(=O)[C@H]([C@@H](C)O)NC(=O)[C@H](CC(C)C)N(C)C(=O)[C@H](Cc2ccccc2)NC(=O)[C@H](Cc2ccccc2)N(C)C(=O)[C@H](CC(C)C)N(C)C1=O` [pd218] ([NMeA][NMeL]L[NMeL][NMeF]F[NMeL]TD[NMeF]A-Piperidide; lactam N-9), for which the Papp was 1.1 ×10⁻⁶ cm/s.
The same measure, in the same setting: as for `CC(C)C[C@@H]1NC(=O)[C@H](Cc2ccccc2)N(C)C(=O)[C@H](COC(C)(C)C)NC(=O)[C@H](Cc2ccccc2)N(C)C(=O)[C@H](C)N(C)C(=O)[C@H](CC(C)C)N(C)C(=O)[C@H]2CCCN2C(=O)C[C@@H](C(=O)N2CCCCC2)N(C)C(=O)[C@H](Cc2ccccc2)N(C)C(=O)[C@H]([C@@H](C)O)NC(=O)[C@H](C(C)C)N(C)C1=O` [pd219] ([dP][NMeL][NMeA][NMeF]S(tBu)[NMeF]L[NMeV]T[NMeF][NMeD]-Piperidide; lactam N-11), the figure is 1.1 ×10⁻⁶ cm/s.
Same read-out and setting: as for `CC(C)C[C@@H]1NC(=O)[C@H](Cc2ccccc2)N(C)C(=O)[C@H](COC(C)(C)C)NC(=O)[C@H](Cc2ccccc2)N(C)C(=O)[C@H](C)N(C)C(=O)[C@H](CC(C)C)N(C)C(=O)[C@@H](C)NC(=O)C[C@@H](C(=O)N2CCCCC2)NC(=O)[C@H](Cc2ccccc2)N(C)C(=O)[C@H]([C@@H](C)O)NC(=O)[C@H](CC(C)C)N(C)C1=O` [pd220] ([dA][NMeL][NMeA][NMeF]S(tBu)[NMeF]L[NMeL]T[NMeF]D-Piperidide; lactam N-11), the figure is 1.1 ×10⁻⁶ cm/s; as for `CC(C)C[C@@H]1NC(=O)[C@H](Cc2ccccc2)N(C)C(=O)[C@@H](C(C)C)NC(=O)C[C@@H](C(=O)N2CCCCC2)NC(=O)[C@H](Cc2ccccc2)N(C)C(=O)[C@H](Cc2ccccc2)N(C)C(=O)[C@H](C(C)C)NC(=O)[C@H](CC(C)C)N(C)C(=O)CN(C)C(=O)[C@H]([C@@H](C)O)NC(=O)[C@H](CC(C)C)N(C)C1=O` [pd221] ([dV][NMeF]L[NMeL]T[Sar][NMeL]V[NMeF][NMeF]D-Piperidide; lactam N-11), 1.1 ×10⁻⁶ cm/s; as for `CC(C)C[C@@H]1NC(=O)[C@H](Cc2ccccc2)N(C)C(=O)[C@H](CC(C)C)N(C)C(=O)[C@@H](C)N(C)C(=O)C[C@@H](C(=O)N2CCCCC2)NC(=O)[C@H](CC(C)C)N(C)C(=O)[C@H](Cc2ccccc2)N(C)C(=O)[C@H]([C@@H](C)O)NC(=O)[C@H](Cc2ccccc2)N(C)C1=O` [pd223] ([dNMeA][NMeL][NMeF]L[NMeF]T[NMeF][NMeL]D-Piperidide; lactam N-9), 1.1 ×10⁻⁶ cm/s.

The series is the same for the next values; noted with them: human, Caco-2, Caco-2 (cm/sec) Papp.
For the compound `CC(C)C[C@@H]1NC(=O)[C@H](Cc2ccccc2)N(C)C(=O)[C@H](C)N(C)C(=O)C[C@@H](C(=O)N2CCCCC2)NC(=O)[C@H](CC(C)C)N(C)C(=O)[C@H](Cc2ccccc2)N(C)C(=O)[C@H](Cc2ccccc2)NC(=O)[C@H](Cc2cscn2)N(C)C(=O)[C@H](C)N(C)C(=O)[C@H]([C@@H](C)O)NC(=O)[C@H](CC(C)C)N(C)C1=O` [pd226] ([NMeA][NMeF]L[NMeL]T[NMeA][NMeAla(4-thiazolyl)]F[NMeF][NMeL]D-Piperidide; lactam N-11), the Papp was determined as 0.68 ×10⁻⁶ cm/s.
On the same count and under the same terms, as for `CC(C)C[C@@H]1NC(=O)[C@H](Cc2ccccc2)N(C)C(=O)C[C@@H](C(=O)N2CCCCC2)NC(=O)[C@H](CC(C)C)N(C)C(=O)CN(C)C(=O)[C@H]([C@@H](C)O)NC(=O)[C@H](Cc2ccccc2)N(C)C(=O)[C@H](Cc2ccccc2)N(C)C(=O)[C@H](CC(C)C)NC(=O)[C@H](Cc2ccccc2)N(C)C(=O)[C@H](CC(C)C)N(C)C1=O` [pd227] ([NMeF]L[NMeL][NMeF]L[NMeF][NMeF]T[Sar][NMeL]D-Piperidide; lactam N-11), the figure is 0.61 ×10⁻⁶ cm/s.
On the same count and under the same terms, as for `CC(C)C[C@@H]1NC(=O)[C@H](CC(C)C)N(C)C(=O)C[C@@H](C(=O)N2CCCCC2)NC(=O)[C@H](CC(C)C)N(C)C(=O)CN(C)C(=O)[C@H]([C@@H](C)O)NC(=O)[C@H](Cc2cscn2)N(C)C(=O)[C@H](Cc2ccccc2)N(C)C(=O)[C@H](Cc2ccccc2)NC(=O)[C@H](Cc2ccccc2)N(C)C(=O)[C@H](CC(C)C)N(C)C1=O` [pd228] ([NMeL]L[NMeL][NMeF]F[NMeF][NMeAla(4-thiazolyl)]T[Sar][NMeL]D-Piperidide; lactam N-11), the figure is 0.58 ×10⁻⁶ cm/s; as for `CC(C)C[C@@H]1NC(=O)[C@H](Cc2ccccc2)N(C)C(=O)[C@H](C(C)C)N(C)C(=O)C[C@@H](C(=O)N2CCCCC2)NC(=O)[C@H]([C@@H](C)O)NC(=O)[C@H](Cc2ccccc2)N(C)C(=O)[C@H](Cc2ccccc2)NC(=O)[C@H](Cc2ccccc2)N(C)C(=O)CN(C)C(=O)[C@H](C)N(C)C(=O)[C@H](CC(C)C)N(C)C1=O` [pd229] ([NMeV][NMeF]L[NMeL][NMeA][Sar][NMeF]F[NMeF]TD-Piperidide; lactam N-11), 0.41 ×10⁻⁶ cm/s.

The record behind these values is patent US20230096766A1, “AMINO ACID HAVING FUNCTIONAL GROUP CAPABLE OF INTERMOLECULAR HYDROGEN BONDING, PEPTIDE COMPOUND CONTAINING SAME AND METHOD FOR PRODUCTION THEREOF” (Chugai Seiyaku Kabushiki Kaisha, priority 2018, published 2023).
